One block for each molecule: values may come before it.
Assays:
RAW264.7 [1] = test: Antiinflammatory activity in mouse RAW264.7 cells assessed as inhibition of LPS-induced NF-kappaB activation incubated for 24 hrs by SEAP microplate reader analysis; assay type: functional, cell-based; conditions: RAW264.7, 24 h
RAW264.7 [2] = test: Antiinflammatory activity in mouse RAW264.7 cells assessed as inhibition of LPS-induced NO production incubated for 24 hrs by Griess reagent based analysis; assay type: functional, cell-based; conditions: RAW264.7, 24 h
RAW264.7 [3] = test: Antiinflammatory activity in mouse RAW264.7 cells assessed as inhibition of LPS-induced NF-kappaB expression preincubated for 1 hr followed by LPS stimulation and measured after 18 hrs by qPCR analysis; assay type: functional, cell-based
RAW264.7 [4] = test: Antiinflammatory activity in mouse RAW264.7 cells assessed as inhibition of LPS-induced TNFalpha production preincubated for 1 hr followed by LPS stimulation and measured after 18 hrs by immunoassay; assay type: functional, cell-based
RAW264.7 [5] = test: Antiinflammatory activity in mouse RAW264.7 cells assessed as inhibition of LPS-induced NO production incubated for 20 hrs by Griess reagent based microplate reader analysis; assay type: functional, cell-based; conditions: RAW264.7, 20 h
RAW264.7 [6] = test: Antiinflammatory activity in mouse RAW264.7 cells assessed as inhibition of LPS-induced NO production at 10 ug/ml incubated for 20 hrs by Griess reagent based microplate reader analysis; assay type: functional
U-937 [7] = test: Antiinflammatory activity in PMA-stimulated human U-937 cells assessed as inhibition of IL-1beta protein expression at 1 ug/ml by western blot analysis; assay type: functional
U-937 [8] = test: Antiinflammatory activity in PMA-stimulated human U-937 cells assessed as inhibition of IL-1beta secretion at 1 ug/ml by ELISA; assay type: functional
U-937 [9] = test: Antiinflammatory activity in PMA-stimulated human U-937 cells assessed as inhibition of TNFalpha secretion at 1 ug/ml by ELISA; assay type: functional
J774.A1 = test: Antiinflammatory activity in mouse J774.A1 cells assessed as inhibition of LPS-induced NO production incubated for 24 hrs by Griess reagent based analysis; assay type: functional, cell-based; conditions: J774.A1, 24 h
Mus musculus [10] = test: Antiinflammatory activity in ICR mouse model of TPA-induced ear edema assessed as inhibition of ear inflammation at 1 mg,TOP for 30 mins followed by TPA addition and measured after 6 hrs; assay type: functional; conditions: time 390 min, 6.5 h
RAW264.7 [11] = test: Antiinflammatory activity in mouse RAW264.7 cells assessed as inhibition of LPS-induced NO production at 30 uM preincubated for 0.5 hrs followed by LPS stimulation and measured after 24 hrs by Griess reagent based analysis; assay type: functional; conditions: time 24.5 hrs
RAW264.7 [12] = test: Antiinflammatory activity in mouse RAW264.7 cells assessed as inhibition of LPS-induced NO production by Griess method; assay type: functional, cell-based
Rattus norvegicus [13] = test: Antiinflammatory activity in rat model of ethyl phenylpropiolate-induced ear edema assessed as reduction in ear thickness administered topically and measured after 30 mins; assay type: functional; conditions: 0.5 h
Rattus norvegicus [14] = test: Antiinflammatory activity in rat model of ethyl phenylpropiolate-induced ear edema assessed as 30% reduction in ear thickness administered topically and measured after 30 mins; assay type: functional; conditions: 0.5 h
Rattus norvegicus [15] = test: Antiinflammatory activity in rat model of ethyl phenylpropiolate-induced ear edema assessed as 30% reduction in ear thickness administered topically and measured after 1 hr; assay type: functional
Rattus norvegicus [16] = test: Antiinflammatory activity in rat model of ethyl phenylpropiolate-induced ear edema assessed as reduction in ear thickness administered topically and measured after 1 hr; assay type: functional
RAW264.7 [17] = test: Antiinflammatory activity in mouse RAW264.7 cells assessed as inhibition of LPS-induced NO production incubated for 18 hrs by Griess method; assay type: functional, cell-based; conditions: RAW264.7, 18 h
[18] = Antioxidant activity assessed as nitroblue tetrazolium superoxide radical scavenging activity by spectrophotometric analysis; assay type: functional
RAW264.7 [19] = test: Antiinflammatory activity in mouse RAW264.7 cells assessed as inhibition of LPS-induced NO production preincubated for 1 hrs followed by LPS stimulation and measured after 24 hrs by Griess reagent based analysis; assay type: functional, cell-based
RAW264.7 [20] = test: Antiinflammatory activity in mouse RAW264.7 cells assessed as inhibition of LPS-induced NO production incubated for 20 hrs by Griess method; assay type: functional, cell-based; conditions: RAW264.7, 20 h
RAW264.7 [21] = test: Antiinflammatory activity in mouse RAW264.7 cells assessed as inhibition of LPS-induced NO production incubated for 24 hrs by Griess method; assay type: functional, cell-based; conditions: RAW264.7, 24 h
[22] = Antioxidant activity assessed as DPPH radical scavenging activity incubated for 30 mins by spectrophotometric analysis; assay type: functional
[23] = Antioxidant activity assessed as nitroblue tetrazolium superoxide radical scavenging activity incubated for 10 mins by spectrophotometric analysis; assay type: functional
Rattus norvegicus [24] = test: Antiinflammatory activity in rat model of carrageenan-induced hind paw edema assessed as reduction in paw thickness at 100 mg/kg,ip 30mins before carrageenin exposure and measured after 3 hrs; assay type: functional; set-up: scale not given: the % may be the effect or the level left
RAW264.7 [25] = test: Antiinflammatory activity in mouse RAW264.7 cells assessed as inhibition of LPS-induced NO production for 24 hrs by colorimetric analysis; assay type: functional, cell-based; conditions: RAW264.7, 24 h
[26] = Inhibition of COX in bovine seminal vesicle assessed as reduction in PGE2 production using arachidonic acid as substrate; assay type: tissue-based, Bos taurus
Zingiber officinale = test: Inhibition of prostaglandin biosynthesis in ginger; assay type: functional, organism-based
[27] = biological target: T1, Polyunsaturated fatty acid 5-lipoxygenase (Homo sapiens, UniProt P09917); test: Inhibition of 5-LOX in human neutrophils assessed as reduction in 5-HETE formation preincubated for 5 mins followed by arachidonic acid and A23187 addition and measured after 5 mins by RP-HPLC analysis; assay type: cell-based, Neutrophil
T1 sequence (P09917 whole entry): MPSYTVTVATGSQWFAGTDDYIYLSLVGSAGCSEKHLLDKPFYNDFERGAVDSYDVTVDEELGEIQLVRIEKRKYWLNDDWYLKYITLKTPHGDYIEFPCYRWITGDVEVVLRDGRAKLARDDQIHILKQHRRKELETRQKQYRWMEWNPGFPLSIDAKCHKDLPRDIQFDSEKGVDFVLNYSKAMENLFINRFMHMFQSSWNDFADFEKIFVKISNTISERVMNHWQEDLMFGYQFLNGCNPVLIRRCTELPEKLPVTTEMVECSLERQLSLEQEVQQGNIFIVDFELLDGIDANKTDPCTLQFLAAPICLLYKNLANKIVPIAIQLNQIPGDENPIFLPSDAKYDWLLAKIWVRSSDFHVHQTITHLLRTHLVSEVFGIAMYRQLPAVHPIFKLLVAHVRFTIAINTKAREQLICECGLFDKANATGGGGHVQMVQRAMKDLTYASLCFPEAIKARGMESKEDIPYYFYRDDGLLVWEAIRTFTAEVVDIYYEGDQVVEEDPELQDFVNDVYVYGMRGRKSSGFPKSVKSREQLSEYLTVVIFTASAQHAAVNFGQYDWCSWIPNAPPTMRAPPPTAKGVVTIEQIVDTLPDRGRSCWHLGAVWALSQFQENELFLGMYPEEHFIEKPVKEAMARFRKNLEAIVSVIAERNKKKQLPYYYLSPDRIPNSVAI

Mus musculus [28] = test: Antiinflammatory activity in ICR mouse model of TPA-induced ear edema assessed as inhibition of ear inflammation at 20 uM,TOP for 30 mins followed by TPA addition and measured after 5 hrs; assay type: functional; conditions: 5.5 h, time 330 min
RAW264.7 [29] = test: Antiinflammatory activity in mouse RAW264.7 cells assessed as inhibition of LPS-induced iNOS expression at 25 uM; assay type: functional
Rattus norvegicus [30] = test: Antiinflammatory activity in Wistar rat model of carrageenan-induced paw edema assessed as reduction in paw thickness at 10 mg/kg,po and measured after 5 hrs; assay type: functional; set-up: scale not given: the % may be the effect or the level left
Mus musculus [31] = test: Antiinflammatory activity in TPA-induced ear edema ICR mouse model assessed as inhibition of ear inflammation at 1 ug, TOP for 30 mins followed by TPA addition and measured after 6 hrs; assay type: functional; conditions: dose 1 µg, time 390 min, 6.5 h
RAW264.7 [32] = test: Antiinflammatory activity in mouse RAW264.7 cells assessed as inhibition of KLA-induced TNFalpha expression at 0.06 mg/ml and measured after 24 hrs by ELISA; assay type: functional

Compound: C=C1C(=O)O[C@@H]2[C@H]3O[C@]3(C)CC/C=C(\C)CC[C@@H]12
IC50 (RAW264.7 [1]): 3.4 µM
IC50 (RAW264.7 [2]): 2.4 µM
IC50 (RAW264.7 [3]): 3.4 µM
IC50 (RAW264.7 [4]): 2.6 µM

Compound: COc1cc(CCC(=O)CC(O)CCc2ccc(O)c(OC)c2)ccc1O (stereo not drawn) [HEXAHYDROCURCUMIN]
IC50 (RAW264.7 [5]): > 30 µM
inhibition at 10 µg/mL (RAW264.7 [6]): 32%

Compound: Oc1ccc(CCC(O)CC/C=C/c2ccccc2)cc1O (stereo not drawn)
inhibition at 1 µg/mL (U-937 [7]): 64%
inhibition at 1 µg/mL (U-937 [8]): 30%
inhibition at 1 µg/mL (U-937 [9]): 44%

Compound: CCCCC1C(=O)N(c2ccccc2)N(c2ccc(O)cc2)C1=O (stereo not drawn) [OXYPHENBUTAZONE ANHYDROUS]
ID50 (Rattus norvegicus [13]): 12 µg
ID30 (Rattus norvegicus [14]): 0.2 µg
ID30 (Rattus norvegicus [15]): 0.3 µg
ID50 (Rattus norvegicus [16]): 46 µg

Compound: O=C(CCCCc1ccc(O)c(O)c1)CCc1ccc(O)c(O)c1
IC50 (RAW264.7 [17]): 16.8 µM
IC50 [18]: 30.1 µM
IC50 (RAW264.7 [19]): 6.6 µM
IC50 (RAW264.7 [20]): 2600 nM
IC50 (RAW264.7 [21]): 22.7 µM
IC50 [22]: 20.1 µM
IC50 [23]: 12.7 µM

Compound: OC(CC/C=C/c1ccccc1)CCc1ccccc1 (stereo not drawn)
Activity (Rattus norvegicus [24]): 30%
ID30 (Rattus norvegicus [14]): 35 µg
ID30 (Rattus norvegicus [15]): 28 µg

Compound: Oc1ccc(CCC(O)CC/C=C/c2ccccc2)cc1 (stereo not drawn)
inhibition at 1 µg/mL (U-937 [7]): 58%
inhibition at 1 µg/mL (U-937 [8]): 20%
inhibition at 1 µg/mL (U-937 [9]): 19%

Compound: COc1cc(C[C@H]2O[C@@H](CC(=O)c3ccc(O)c(OC)c3)C[C@H]2O)ccc1O
IC50 (RAW264.7 [12]): > 100 µM

Compound: COc1cc(CCC(O)CC(O)CCc2ccc(O)c(O)c2)ccc1O (stereo not drawn)
IC50 (RAW264.7 [5]): 22.8 µM
inhibition at 25 µM (RAW264.7 [29]): 32%

Further lines, with some results ahead:

IC50 (J774.A1): 100 µM
Compound: OC[C@H]1O[C@@H](O[C@H](CCCCc2ccc(O)cc2)CCc2ccc(O)cc2)[C@H](O)[C@@H](O)[C@@H]1O
ID50 (Mus musculus [10]): 0.66 mg
inhibition at 30 µM (RAW264.7 [11]): 24%

IC50 (RAW264.7 [12]): 38.9 µM
Compound: COc1cc(C(=O)[C@@H](O)[C@@H]2CCC[C@H](c3ccc(O)c(OC)c3)O2)ccc1O

IC50 (RAW264.7 [25]): 660 nM
Compound: Oc1ccc(CCC(O)/C=C/C=C/c2ccccc2)cc1 (stereo not drawn)

IC50 [26]: 16 µM
IC50 (Zingiber officinale): 500 nM
IC50 [27]: 5.4 µM
Compound: COc1cc(CCC(=O)CCCCc2ccccc2)ccc1O
inhibition in vivo at 20 µM (Mus musculus [28]): 43%

IC50 (RAW264.7 [2]): 18.5 µM
IC50 (RAW264.7 [3]): 9.2 µM
IC50 (RAW264.7 [4]): 22.9 µM
Compound: COc1c2ccc(c1O)CCCCC(=O)CCc1ccc(O)c(c1)O2

IC50 (RAW264.7 [5]): 6.8 µM
Compound: O=C(/C=C/CCc1ccccc1)CCc1ccccc1
inhibition at 25 µM (RAW264.7 [29]): 71%
Activity (Rattus norvegicus [30]): 4.7%
ID50 (Mus musculus [31]): 2.7 µmol
inhibition at 60 µg/mL (RAW264.7 [32]): 38%

IC50 (RAW264.7 [5]): > 30 µM
Compound: COc1cc(CCC(O)CC(O)CCc2ccccc2)ccc1O (stereo not drawn)
inhibition at 10 µg/mL (RAW264.7 [6]): 27%

Source: ChEMBL document CHEMBL5233262, “Anti-inflammatory activity of naturally occuring diarylheptanoids - A review” (Bioorg Med Chem, 2021)
